Our source for the inhibition values is patent EP3383875B1, “3-PYRIMIDINYL PYRROLO [2,3-B] PYRIDINE AS ANTICANCER AGENTS AND THE PROCESS FOR THE PREPARATION THEREOF” (Council Of Scientific & Industrial Research, priority 2015, dated 2017).

Like-named read-outs stand apart in the source and are kept apart here.

For one assay, the target named is CDK-9/Cyclin T1 (Homo sapiens, UniProt P50750). The assay can be described thus: CDK inhibition assay, CDK-9/Cyclin T1 against substrate peptide, 33P-ATP. Format: biochemical. The note with it: at 500 nM. Here is the method:
(50-1000 cpm/pmole) and incubated for 30 min at room temperature. Assays were stopped by addition of 5 µl of 0.5 M (3%) orthophosphoric acid and then harvested onto P81 Unifilter plates with a wash buffer of 50 mM orthophosphoric acid.

The next assay addresses CDK-2/cyclin A (Homo sapiens, UniProt P24941). The experiment in a line: CDK inhibition assay, CDK-2/cyclin A against Histone HI, 33P-ATP. Type of assay: biochemical. The note with it: at 500 nM. Here is the method: Compounds were evaluated for their ability to inhibit CDK2 and CDK9 as given below.
CDK-2/cyclin A (5-20 mU diluted in 50 mM Hepes pH 7.5, 1 mM DTT, 0.02% Brij35, 100 mM NaCl) was assayed against Histone HI in a final volume of 25.5 µl containing 50 mM Hepes pH7.5, 1 mM DTT, 0.02% Brij35, 100 mM NaCl, Histone HI (1 mg/ml), 10 mM magnesium acetate and 0.02 mM [33P-g-ATP](500-1000 cpm/pmole) and incubated for 30 min at room temperature. Assays were stopped by addition of 5 µl of 0.5 M (3%) orthophosphoric acid and then harvested onto P81 Unifilter plates with a wash buffer of 50 mM orthophosphoric acid.

Where [1] appears, read: Table-6, read-out: In vitro CDK9 % of inhibition.
Where [2] appears, read: Table-6, read-out: In vitro CDK2 % of inhibition.
Setting [3] is: Table-7, read-out: In vitro CDK9 % of inhibition.
Setting [4] is: read-out: inhibition against CDK9.
[5] abbreviates: Table-7, read-out: In vitro CDK2 % of inhibition.
Setting [6] is: read-out: inhibition against CDK2.

Sequence of CDK-9/Cyclin T1 (P50750 whole entry): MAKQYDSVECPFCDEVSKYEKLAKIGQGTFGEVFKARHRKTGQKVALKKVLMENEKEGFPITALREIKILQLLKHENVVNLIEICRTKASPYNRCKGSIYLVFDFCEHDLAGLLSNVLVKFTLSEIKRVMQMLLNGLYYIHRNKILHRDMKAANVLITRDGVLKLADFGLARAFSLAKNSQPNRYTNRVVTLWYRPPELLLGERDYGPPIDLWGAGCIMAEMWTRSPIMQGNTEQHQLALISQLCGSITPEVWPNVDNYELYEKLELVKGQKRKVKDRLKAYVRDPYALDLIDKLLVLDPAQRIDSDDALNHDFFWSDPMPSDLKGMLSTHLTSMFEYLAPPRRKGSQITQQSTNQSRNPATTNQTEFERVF
Sequence of CDK-9/Cyclin T1 (O60563 whole entry partner): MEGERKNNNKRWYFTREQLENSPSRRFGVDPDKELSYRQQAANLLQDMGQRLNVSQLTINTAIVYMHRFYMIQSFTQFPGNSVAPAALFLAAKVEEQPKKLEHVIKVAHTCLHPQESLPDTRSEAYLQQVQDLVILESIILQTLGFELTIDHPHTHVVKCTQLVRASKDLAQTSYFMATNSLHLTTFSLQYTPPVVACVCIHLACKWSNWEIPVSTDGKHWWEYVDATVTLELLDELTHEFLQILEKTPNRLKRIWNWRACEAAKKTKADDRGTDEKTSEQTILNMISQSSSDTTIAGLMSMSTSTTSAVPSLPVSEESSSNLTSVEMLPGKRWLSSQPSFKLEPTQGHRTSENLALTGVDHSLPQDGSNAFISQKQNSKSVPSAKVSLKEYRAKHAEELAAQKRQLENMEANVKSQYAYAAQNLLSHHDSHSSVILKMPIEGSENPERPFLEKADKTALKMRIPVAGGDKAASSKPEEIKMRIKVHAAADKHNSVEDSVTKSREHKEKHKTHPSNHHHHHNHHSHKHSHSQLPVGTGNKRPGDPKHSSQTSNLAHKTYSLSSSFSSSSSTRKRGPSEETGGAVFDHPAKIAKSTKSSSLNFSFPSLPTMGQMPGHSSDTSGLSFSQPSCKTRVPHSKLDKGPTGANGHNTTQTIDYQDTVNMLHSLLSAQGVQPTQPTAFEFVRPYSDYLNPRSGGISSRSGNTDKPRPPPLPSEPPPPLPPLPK

Take `O=Cc1ccc(-c2cnc3[nH]cc(-c4ccnc(NC5CCCC5)n4)c3c2)cc1` [1A33, 4-(3-(2-(cyclopentylamino)pyrimidin-4-yl)-1H-pyrrolo[2,3-b]pyridin-5-yl)benzaldehyde]: the inhibition at 0.5 µM was over 50% at CDK-9/Cyclin T1 (setting [1]) and over 70% on CDK-2/cyclin A (setting [2]).
As for `Cc1cccc(-c2cnc3[nH]cc(-c4ccnc(NCCc5ccccc5)n4)c3c2)c1` [1B7, N-phenethyl-4-(5-(m-tolyl)-1H-pyrrolo[2,3-b]pyridin-3-yl)pyrimidin-2-amine], the inhibition at 0.5 µM on CDK-9/Cyclin T1 (setting [3]), on CDK-9/Cyclin T1 (setting [4]), on CDK-2/cyclin A (setting [5]) and on CDK-2/cyclin A (setting [6]) was over 70% each time.
`COc1ccc2[nH]c(-c3cnc4[nH]cc(-c5ccnc(NCCc6ccccc6)n5)c4c3)cc2c1` [1B17, 4-(5-(5-methoxy-1H-indol-2-yl)-1H-pyrrolo[2,3-b]pyridin-3-yl)-N-phenethylpyrimidin-2-amine]: the inhibition at 0.5 µM on CDK-9/Cyclin T1 (setting [3]), on CDK-9/Cyclin T1 (setting [4]), at CDK-2/cyclin A (setting [5]) and at CDK-2/cyclin A (setting [6]) was over 50% in each case.
Regarding `CSc1ccc(-c2cnc3[nH]cc(-c4ccnc(NC5CC5)n4)c3c2)cc1` [1A8, N-cyclopropyl-4-(5-(4-(methylthio)phenyl)-1H-pyrrolo[2,3-b]pyridin-3-yl)pyrimidin-2-amine], the inhibition at 0.5 µM on CDK-9/Cyclin T1 (setting [1]), at CDK-9/Cyclin T1 (setting [4]), at CDK-2/cyclin A (setting [2]) and at CDK-2/cyclin A (setting [6]) was over 70% throughout.
As to `c1ccc2sc(-c3cnc4[nH]cc(-c5ccnc(NC6CCCCCC6)n5)c4c3)cc2c1` [1A58, 4-(5-(benzo[b]thiophen-2-yl)-1H-pyrrolo[2,3-b]pyridin-3-yl)-N-cycloheptylpyrimidin-2-amine], the inhibition at 0.5 µM at CDK-9/Cyclin T1 (setting [3]), on CDK-9/Cyclin T1 (setting [4]), on CDK-2/cyclin A (setting [5]) and at CDK-2/cyclin A (setting [6]) was over 70% throughout.
For the compound `c1ccc(CCNc2nccc(-c3c[nH]c4ncc(-c5cccc6ccccc56)cc34)n2)cc1` [1B14, 4-(5-(naphthalen-1-yl)-1H-pyrrolo[2,3-b]pyridin-3-yl)-N-phenethylpyrimidin-2-amine], the inhibition at 0.5 µM at CDK-9/Cyclin T1 (setting [3]), at CDK-9/Cyclin T1 (setting [4]), on CDK-2/cyclin A (setting [5]) and at CDK-2/cyclin A (setting [6]) was over 50% in each case.
Take `c1ccc2c(-c3cnc4[nH]cc(-c5ccnc(NC6CC6)n5)c4c3)nccc2c1` [1A20, N-cyclopropyl-4-(5-(isoquinolin-1-yl)-1H-pyrrolo[2,3-b]pyridin-3-yl)pyrimidin-2-amine]: the inhibition at 0.5 µM at CDK-9/Cyclin T1 (setting [1]) was under 50%; on CDK-9/Cyclin T1 (setting [4]), over 50%; at CDK-2/cyclin A (setting [2]) it was over 50%; at CDK-2/cyclin A (setting [6]), over 50%.
In the case of `c1ccc(CCNc2nccc(-c3c[nH]c4ncc(-c5nccc6ccccc56)cc34)n2)cc1` [1B20, 4-(5-(isoquinolin-1-yl)-1H-pyrrolo[2,3-b]pyridin-3-yl)-N-phenethylpyrimidin-2-amine], the inhibition at 0.5 µM on CDK-9/Cyclin T1 (setting [3]), at CDK-9/Cyclin T1 (setting [4]), on CDK-2/cyclin A (setting [5]) and on CDK-2/cyclin A (setting [6]) was over 50% throughout.
Take `Cc1cccc(-c2cnc3[nH]cc(-c4ccnc(NC5CC5)n4)c3c2)c1` [1A7, N-cyclopropyl-4-(5-(m-tolyl)-1H-pyrrolo[2,3-b]pyridin-3-yl)pyrimidin-2-amine]: the inhibition at 0.5 µM on CDK-9/Cyclin T1 (setting [1]), at CDK-9/Cyclin T1 (setting [4]), on CDK-2/cyclin A (setting [2]) and at CDK-2/cyclin A (setting [6]) was over 70% each time.
Regarding `FC(F)(F)c1cccc(-c2cnc3[nH]cc(-c4ccnc(NCCc5ccccc5)n4)c3c2)c1` [1B4, N-phenethyl-4-(5-(3-(trifluoromethyl)phenyl)-1H-pyrrolo[2,3-b]pyridin-3-yl)pyrimidin-2-amine], the inhibition at 0.5 µM on CDK-9/Cyclin T1 (setting [3]), on CDK-9/Cyclin T1 (setting [4]), on CDK-2/cyclin A (setting [5]) and at CDK-2/cyclin A (setting [6]) was over 70% throughout.
For `FC(F)(F)c1ccc(-c2cnc3[nH]cc(-c4ccnc(NC5CC5)n4)c3c2)cc1` [1A1, N-cyclopropyl-4-(5-(4-(trifluoromethyl)phenyl)-1H-pyrrolo[2,3-b]pyridin-3-yl)pyrimidin-2-amine], the inhibition at 0.5 µM on CDK-9/Cyclin T1 (setting [1]) and at CDK-2/cyclin A (setting [2]) was under 50% in each case.
Turning to `c1ccc2c(-c3cnc4[nH]cc(-c5ccnc(NC6CCCC6)n5)c4c3)cccc2c1` [1A34, N-cyclopentyl-4-(5-(naphthalen-1-yl)-1H-pyrrolo[2,3-b]pyridin-3-yl)pyrimidin-2-amine], the inhibition at 0.5 µM at CDK-9/Cyclin T1 (setting [1]) and at CDK-2/cyclin A (setting [2]) was over 50% throughout.
Turning to `c1ccc2sc(-c3cnc4[nH]cc(-c5ccnc(NC6CCCC6)n5)c4c3)cc2c1` [1A38, 4-(5-(benzo[b]thiophen-2-yl)-1H-pyrrolo[2,3-b]pyridin-3-yl)-N-cyclopentylpyrimidin-2-amine], the inhibition at 0.5 µM on CDK-9/Cyclin T1 (setting [1]), at CDK-9/Cyclin T1 (setting [4]), on CDK-2/cyclin A (setting [2]) and on CDK-2/cyclin A (setting [6]) was over 50% in each case.
`Cc1cccc(-c2cnc3[nH]cc(-c4ccnc(NC5CCCCCC5)n4)c3c2)c1` [1A47, N-cycloheptyl-4-(5-(m-tolyl)-1H-pyrrolo[2,3-b]pyridin-3-yl)pyrimidin-2-amine]: the inhibition at 0.5 µM on CDK-9/Cyclin T1 (setting [1]), on CDK-9/Cyclin T1 (setting [4]), at CDK-2/cyclin A (setting [2]) and on CDK-2/cyclin A (setting [6]) was over 50% in each case.
As to `Cc1ccc(-c2cnc3[nH]cc(-c4ccnc(NCCc5ccccc5)n4)c3c2)cc1` [1B6, N-phenethyl-4-(5-(p-tolyl)-1H-pyrrolo[2,3-b]pyridin-3-yl)pyrimidin-2-amine], the inhibition at 0.5 µM on CDK-9/Cyclin T1 (setting [3]), on CDK-9/Cyclin T1 (setting [4]), at CDK-2/cyclin A (setting [5]) and on CDK-2/cyclin A (setting [6]) was over 70% throughout.
`CSc1ccc(-c2cnc3[nH]cc(-c4ccnc(NCCc5ccccc5)n4)c3c2)cc1` [1B8, 4-(5-(4-(methylthio)phenyl)-1H-pyrrolo[2,3-b]pyridin-3-yl)-N-phenethylpyrimidin-2-amine]: the inhibition at 0.5 µM at CDK-9/Cyclin T1 (setting [3]), at CDK-9/Cyclin T1 (setting [4]), on CDK-2/cyclin A (setting [5]) and on CDK-2/cyclin A (setting [6]) was over 50% throughout.
For the compound `c1cc(-c2c[nH]c3ncc(-c4ccoc4)cc23)nc(NC2CCCC2)n1` [1A36, N-cyclopentyl-4-(5-(furan-3-yl)-1H-pyrrolo[2,3-b]pyridin-3-yl)pyrimidin-2-amine], the inhibition at 0.5 µM at CDK-9/Cyclin T1 (setting [1]), at CDK-9/Cyclin T1 (setting [4]), on CDK-2/cyclin A (setting [2]) and on CDK-2/cyclin A (setting [6]) was over 50% in each case.
For `FC(F)(F)c1cccc(-c2cnc3[nH]cc(-c4ccnc(NC5CC5)n4)c3c2)c1` [1A4, N-cyclopropyl-4-(5-(3-(trifluoromethyl)phenyl)-1H-pyrrolo[2,3-b]pyridin-3-yl)pyrimidin-2-amine], the inhibition at 0.5 µM on CDK-9/Cyclin T1 (setting [1]), at CDK-9/Cyclin T1 (setting [4]), at CDK-2/cyclin A (setting [2]) and on CDK-2/cyclin A (setting [6]) was over 70% throughout.
Take `O=Cc1ccc(-c2cnc3[nH]cc(-c4ccnc(NC5CC5)n4)c3c2)cc1` [1A13, 4-(3-(2-(cyclopropylamino)pyrimidin-4-yl)-1H-pyrrolo[2,3-b]pyridin-5-yl)benzaldehyde]: the inhibition at 0.5 µM at CDK-9/Cyclin T1 (setting [1]), on CDK-9/Cyclin T1 (setting [4]), at CDK-2/cyclin A (setting [2]) and on CDK-2/cyclin A (setting [6]) was over 70% each time.
With `FC(F)(F)c1cccc(-c2cnc3[nH]cc(-c4ccnc(NC5CCCCCC5)n4)c3c2)c1` [1A44, N-cycloheptyl-4-(5-(3-(trifluoromethyl)phenyl)-1H-pyrrolo[2,3-b]pyridin-3-yl)pyrimidin-2-amine], the figures for the inhibition at 0.5 µM at CDK-9/Cyclin T1 (setting [1]) and on CDK-2/cyclin A (setting [2]) were over 50% and over 70%, respectively.
With `Cc1ccc(-c2cnc3[nH]cc(-c4ccnc(NC5CCCCCC5)n4)c3c2)cc1` [1A46, N-cycloheptyl-4-(5-(p-tolyl)-1H-pyrrolo[2,3-b]pyridin-3-yl)pyrimidin-2-amine], the inhibition at 0.5 µM on CDK-9/Cyclin T1 (setting [1]), at CDK-9/Cyclin T1 (setting [4]), on CDK-2/cyclin A (setting [2]) and on CDK-2/cyclin A (setting [6]) was over 50% in each case.
For `CSc1ccccc1-c1cnc2[nH]cc(-c3ccnc(NC4CC4)n3)c2c1` [1A9, N-cyclopropyl-4-(5-(2-(methylthio)phenyl)-1H-pyrrolo[2,3-b]pyridin-3-yl)pyrimidin-2-amine], the inhibition at 0.5 µM on CDK-9/Cyclin T1 (setting [1]), on CDK-9/Cyclin T1 (setting [4]), on CDK-2/cyclin A (setting [2]) and at CDK-2/cyclin A (setting [6]) was over 70% each time.
Turning to `FC(F)(F)Oc1ccc(-c2cnc3[nH]cc(-c4ccnc(NCCc5ccccc5)n4)c3c2)cc1` [1B3, N-phenethyl-4-(5-(4-(trifluoromethoxy)phenyl)-1H-pyrrolo[2,3-b]pyridin-3-yl)pyrimidin-2-amine], the inhibition at 0.5 µM on CDK-9/Cyclin T1 (setting [3]), on CDK-9/Cyclin T1 (setting [4]), on CDK-2/cyclin A (setting [5]) and on CDK-2/cyclin A (setting [6]) was over 50% in each case.
`CSc1ccccc1-c1cnc2[nH]cc(-c3ccnc(NC4CCCCCC4)n3)c2c1` [1A49, N-cycloheptyl-4-(5-(2-(methylthio)phenyl)-1H-pyrrolo[2,3-b]pyridin-3-yl)pyrimidin-2-amine]: the inhibition at 0.5 µM on CDK-9/Cyclin T1 (setting [3]) and at CDK-2/cyclin A (setting [5]) was under 50% in each case.
